Results from patent US20050049293A1, “Use of cholinesterase antagonists to treat insulin resistance” (priority 2002, published 2005).
Where two headings read alike, the source gives them in different places.

How the values were obtained:
[1] = tested on: atropine-induced HISS-dependent insulin resistance (HDIR); test: Rapid insulin sensitivity test (RIST) in atropine model of 75% HDIR, reversal with neostigmine (Example 1); conditions: neostigmine 1 μg/kg/min ipv
[2] = tested on: HISS-dependent insulin resistance in sucrose-fed rats; test: RIST during neostigmine infusion in liquid sucrose-fed rats (Example 3); assay type: in vivo; conditions: portal vein infusion
Source text: Since both forms of diet produced the same degree of HDIR, the model of sucrose feeding using the liquid diet was used to determine whether this HDIR was reversible with the anticholinesterase agent, neostigmine.
The model of insulin resistance produced by the 35% liquid sucrose diet (in addition to regular rodent food pellets and normal drinking water) was identical to the protocol described above for the assessment of HDIR in sucrose-fed rats.
The surgical preparation was identical to that described above for sucrose-fed rats tested for HDIR. In addition, a laparotomy and portal vein cannulation were carried out. […] Following a laporotomy, the portal vein was cannulated.
After conducting a control RIST, neostigmine was infused into the portal vein for at least […] before a second RIST was conducted to determine if this agent could reverse the insulin resistance. The doses of neostigmine were 1 and 2 μg/kg/min.

[3] = tested on: hepatic muscarinic receptors (insulin resistance); conditions: cats, cited from earlier work
[4] = control RIST index 94.8±11.2 mg/kg

SMILES: CN(C)C(=O)Oc1cccc([N+](C)(C)C)c1 [neostigmine]
- RIST index during constant infusion of neostigmine ([1]; after atropine-induced 75% HDIR (blocked state 90.5±[…])): 152.6 ± 15.2 mg/kg
- Reversal of HDIR produced by atropine ([1]; FIG. 1): able to reverse the HDIR
- Reversal of insulin resistance at 1 μg/kg/min ([2]; FIG. 3): did not produce a reversal of insulin resistance
- RIST index during neostigmine 1 μg/kg/min [2, 4]: 80.9 ± 27.3 mg/kg
- RIST index during neostigmine 2 μg/kg/min [2, 4]: 178.0 ± 17.7 mg/kg

SMILES: COc1ccccc1CNCCCCCCNCCCCCCCCNCCCCCCNCc1ccccc1OC [methoctramine]
- Dose achieving a similar degree of insulin resistance ([3]; M2 selective antagonist): 10^−6 μmol/kg

SMILES: CN1CCN(CC(=O)N2c3ccccc3C(=O)Nc3cccnc32)CC1 [pirenzepine]
- Dose achieving a similar degree of insulin resistance ([3]; M1 muscarinic selective antagonist): 10^−7 mmol/kg
